Laboratory results as given in ChEMBL document CHEMBL3046347, “Synthesis and biological evaluation of novel curcumin analogues as anti-inflammatory, anti-cancer and anti-oxidant agents” (Med Chem Res, 2012).

Assays:
[1] = Cytotoxicity against Homo sapiens (human) […] cells at 10 uM; type: cell-based
[2] = molecular target: T1, Prostaglandin G/H synthase 2 (Ovis aries) (UniProt P79208); assay: Inhibition of Ovis aries (sheep) COX2 at 1 uM after 5 min by colorimetric analysis
T1 sequence (whole entry): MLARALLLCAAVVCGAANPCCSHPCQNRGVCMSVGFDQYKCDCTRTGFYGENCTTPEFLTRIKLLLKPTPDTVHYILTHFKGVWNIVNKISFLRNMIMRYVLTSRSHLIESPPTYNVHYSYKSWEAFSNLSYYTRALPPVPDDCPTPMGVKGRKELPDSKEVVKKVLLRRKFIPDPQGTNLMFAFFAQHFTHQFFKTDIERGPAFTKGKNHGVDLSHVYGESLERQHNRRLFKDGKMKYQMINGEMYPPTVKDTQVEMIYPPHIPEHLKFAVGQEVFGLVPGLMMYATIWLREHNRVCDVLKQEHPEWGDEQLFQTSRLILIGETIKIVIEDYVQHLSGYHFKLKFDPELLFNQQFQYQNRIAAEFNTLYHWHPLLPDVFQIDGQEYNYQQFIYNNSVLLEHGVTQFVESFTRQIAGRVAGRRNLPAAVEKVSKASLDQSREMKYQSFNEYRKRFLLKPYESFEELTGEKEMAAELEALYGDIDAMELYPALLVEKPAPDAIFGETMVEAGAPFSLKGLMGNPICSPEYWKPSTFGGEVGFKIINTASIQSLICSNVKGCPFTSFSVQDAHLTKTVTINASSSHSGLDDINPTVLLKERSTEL

[3] = Antioxidant activity assessed as hydroxyl radical scavenging activity at 1 uM by spectrophotometric analysis; type: functional
[4] = system: PANC-1; assay: Cytotoxicity against Homo sapiens (human) PANC1 cells at 10 uM after 48 hr by propidium iodide-based fluorometric assay; type: functional; conditions: PANC-1, 48 h, read-out: GI
[5] = system: HCT-116; assay: Cytotoxicity against Homo sapiens (human) HCT116 cells at 10 uM after 48 hr by propidium iodide-based fluorometric assay; type: functional; conditions: HCT-116, 48 h, read-out: GI
[6] = Antioxidant activity assessed as reduction of potassium ferricynide at 1 uM after 10 min by spectrophotometric analysis; type: functional; parameters: scale not given: the % may be the effect or the level left
[7] = system: ACHN; assay: Cytotoxicity against Homo sapiens (human) ACHN cells at 10 uM after 48 hr by propidium iodide-based fluorometric assay; type: functional; conditions: read-out: GI
[8] = molecular target: T2, Prostaglandin G/H synthase 1 (Ovis aries) (UniProt P05979); conditions: at 1 µM;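 further: colorimetric read-out, measured after 5 min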
T2 sequence (whole entry): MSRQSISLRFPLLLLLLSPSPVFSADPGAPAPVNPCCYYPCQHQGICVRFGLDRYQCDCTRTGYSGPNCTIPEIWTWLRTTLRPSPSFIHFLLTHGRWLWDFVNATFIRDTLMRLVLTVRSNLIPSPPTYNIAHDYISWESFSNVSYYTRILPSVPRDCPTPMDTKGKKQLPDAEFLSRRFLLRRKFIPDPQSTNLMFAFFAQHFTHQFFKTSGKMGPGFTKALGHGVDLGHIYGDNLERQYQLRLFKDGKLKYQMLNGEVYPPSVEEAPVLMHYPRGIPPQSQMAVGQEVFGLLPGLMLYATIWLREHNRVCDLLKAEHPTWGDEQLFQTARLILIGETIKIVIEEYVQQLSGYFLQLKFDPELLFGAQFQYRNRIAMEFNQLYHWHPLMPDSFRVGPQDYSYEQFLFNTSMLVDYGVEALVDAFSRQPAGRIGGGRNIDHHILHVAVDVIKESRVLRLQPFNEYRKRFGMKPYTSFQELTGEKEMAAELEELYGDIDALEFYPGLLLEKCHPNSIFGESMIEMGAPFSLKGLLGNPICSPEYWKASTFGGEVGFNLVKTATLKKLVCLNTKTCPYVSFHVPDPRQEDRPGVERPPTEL
Description: Inhibition of Ovis aries (sheep) COX1 at 1 uM after 5 min by colorimetric analysis

[9] = molecular target: Trypsin (Homo sapiens) (UniProt P07477+P07478+P35030); assay: Inhibition of trypsin (unknown origin) using bovine serum albumin as substrate at 1 uM incubated for 20 min prior to substrate addition measured after 25 min by Lowry method; type: protein assay
[10] = system: THP-1; assay: Anti-inflammatory activity in Homo sapiens (human) THP1 cells assessed as inhibition of LPS-induced IL6 production at 10 uM incubated for 30 min prior to LPS-challenge measured after 24 hr by ELISA; type: functional
[11] = Cytotoxicity against Homo sapiens (human) H460 cells at 10 uM after 48 hr by propidium iodide-based fluorometric assay; type: functional; conditions: NCI-H460, 48 h, read-out: GI
[12] = system: Radical scavenging activity; assay: Antioxidant activity assessed as DPPH radical scavenging activity at 1 uM after 20 min by spectrophotometric analysis; type: functional
[13] = system: THP-1; assay: Anti-inflammatory activity in Homo sapiens (human) THP1 cells assessed as inhibition of LPS-induced TNFalpha production at 10 uM incubated for 30 min prior to LPS-challenge measured after 24 hr by ELISA; type: functional
[14] = molecular target: T3, Beta-glucuronidase (Homo sapiens) (UniProt P08236); assay: Inhibition of beta-glucuronidase (unknown origin) using p-nitrophenyl-beta-D-glucopyranosiduronic acid as substrate at 1 uM after 30 min by spectrophotometric analysis
T3 sequence (whole entry): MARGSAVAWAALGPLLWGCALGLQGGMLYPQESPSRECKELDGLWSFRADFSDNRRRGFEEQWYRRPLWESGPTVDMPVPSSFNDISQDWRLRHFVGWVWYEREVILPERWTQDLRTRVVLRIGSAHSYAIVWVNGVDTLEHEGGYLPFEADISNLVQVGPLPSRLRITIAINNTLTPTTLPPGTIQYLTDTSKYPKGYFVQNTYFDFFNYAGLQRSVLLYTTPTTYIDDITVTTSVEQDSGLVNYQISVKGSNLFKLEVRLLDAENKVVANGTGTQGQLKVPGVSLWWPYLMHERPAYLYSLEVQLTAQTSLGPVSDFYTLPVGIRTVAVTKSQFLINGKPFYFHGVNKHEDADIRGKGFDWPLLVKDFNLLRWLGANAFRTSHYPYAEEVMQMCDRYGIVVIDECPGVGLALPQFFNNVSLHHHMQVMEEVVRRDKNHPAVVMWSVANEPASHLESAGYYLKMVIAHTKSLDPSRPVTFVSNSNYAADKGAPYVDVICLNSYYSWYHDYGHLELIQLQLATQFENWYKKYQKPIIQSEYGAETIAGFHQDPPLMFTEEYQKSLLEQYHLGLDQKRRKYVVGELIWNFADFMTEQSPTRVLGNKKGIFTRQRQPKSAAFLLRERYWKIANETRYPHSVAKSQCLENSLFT

[15] = system: Calu-1; assay: Cytotoxicity against Homo sapiens (human) Calu1 cells at 10 uM after 48 hr by propidium iodide-based fluorometric assay; type: functional; conditions: Calu-1, 48 h, read-out: GI

| SMILES | Activity [1] [%] | inhibition [2] [%] | Activity [3] [%] | inhibition of growth at 10 µM [4] [%] | inhibition of growth at 10 µM [5] [%] | Activity [6] [%] | inhibition of growth at 10 µM [7] [%] | inhibition [8] [%] | inhibition [9] [%] | inhibition at 10 µM [10] [%] | inhibition of growth at 10 µM [11] [%] | Activity [12] [%] | inhibition at 10 µM [13] [%] | inhibition [14] [%] | inhibition of growth at 10 µM [15] [%] |
| --- | --- | --- | --- | --- | --- | --- | --- | --- | --- | --- | --- | --- | --- | --- | --- |
| COc1cc(OC)c(/C=C/C(=O)c2cccc(NC(=O)c3ccccc3F)c2)c(OC)c1Br | 56 | 79.3 | 43.2 | 68 | 66 | 40.5 | 66 | 44.8 | 64.8 | 96 | 52 | 42.9 | 84 | 74.2 | 67 |
| COc1cc(OC)c(/C=C/C(=O)c2cccc(NC(=O)c3ccccc3C)c2)c(OC)c1Br | 54 | 43.7 | 34.6 | 3 | 21 | 22.3 | 15 | 31.5 | 35.5 | 95 | 32 | 31.1 | 72 | 29.7 | 0 |
| COc1cc(OC)c(/C=C/C(=O)c2cccc(NC(=O)c3ccc(F)cc3)c2)c(OC)c1Br | 49 | 83.3 | 33.4 | 66 | 64 | 43.9 | 69 | 58.9 | 72.9 | 97 | 62 | 44.3 | 85 | 79.4 | 60 |
| COc1cc(OC)c(/C=C/C(=O)c2cccc(NC(=O)c3cccc(Cl)c3)c2)c(OC)c1Br | 25 | 86.5 |  | 35 | 28 | 38.4 | 26 | 53.9 | 78.1 | 64 | 17 | 45.3 | 0 | 78.2 | 26 |
| COc1cc(OC)c(/C=C/C(=O)c2cccc(NC(=O)c3cccc(Br)c3)c2)c(OC)c1Br | 31 | 88.4 | 23.6 | 0 | 0 | 39.7 | 6 | 41.7 | 66.5 | 75 | 6 | 42.6 | 4 | 84.7 | 0 |
| O=C(O)c1ccccc1O |  |  |  |  |  |  |  |  | 85 |  |  |  |  | 24.8 |  |
